Assay results taken from the supplement of paper PMC8960247.
± gives the standard error.

Columns and labels:
621-102 (TSC2-deficient) = experiment: relative viability vs DMSO; higher = less cytotoxic; conditions: serum: 10% FBS, 72 h
621-103 (TSC2-rescued) = experiment: as above; conditions: serum: 10% FBS, 72 h
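Further: immortalized renal angiomyolipoma cells stably carrying empty vector or TSC2, dosed in 384-well plates in DMEM, viability normalized to vehicle-treated wells within each plate.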

## Oc1cccc(-c2nc(N3CCOCC3)c3oc4ncccc4c3n2)c1 [PI-103]
621-102 (TSC2-deficient); 0.0001 µM
  relative viability: 105 ± 1.1%
621-102 (TSC2-deficient); 0.001 µM
  relative viability: 92.1 ± 7.2%
621-102 (TSC2-deficient); 0.01 µM
  relative viability: 95.5 ± 3.6%
621-102 (TSC2-deficient); 0.1 µM
  relative viability: 103 ± 1.9%
621-102 (TSC2-deficient); 1 µM
  relative viability: 91.8 ± 3.4%
621-102 (TSC2-deficient); 10 µM
  relative viability: 37.66 ± 0.19%
621-103 (TSC2-rescued); 0.0001 µM
  relative viability: 112 ± 1.2%
621-103 (TSC2-rescued); 0.001 µM
  relative viability: 95.6 ± 3.2%
621-103 (TSC2-rescued); 0.01 µM
  relative viability: 101.2 ± 0.72%
621-103 (TSC2-rescued); 0.1 µM
  relative viability: 102.5 ± 0.82%
621-103 (TSC2-rescued); 1 µM
  relative viability: 83.4 ± 2.7%
621-103 (TSC2-rescued); 10 µM
  relative viability: 38 ± 0.63%

## COc1ccc2c3n(c(=NC(=O)c4cccnc4)nc2c1OC)CCN3 [PIK-90]
621-102 (TSC2-deficient); 0.0001 µM
  relative viability: 85.1 ± 3.9%
621-102 (TSC2-deficient); 0.001 µM
  relative viability: 107 ± 4.7%
621-102 (TSC2-deficient); 0.01 µM
  relative viability: 110 ± 2.5%
621-102 (TSC2-deficient); 0.1 µM
  relative viability: 112 ± 1.5%
621-102 (TSC2-deficient); 1 µM
  relative viability: 110 ± 1.3%
621-102 (TSC2-deficient); 10 µM
  relative viability: 96.7 ± 1.5%
621-103 (TSC2-rescued); 0.0001 µM
  relative viability: 99 ± 1.5%
621-103 (TSC2-rescued); 0.001 µM
  relative viability: 99.75 ± 0.35%
621-103 (TSC2-rescued); 0.01 µM
  relative viability: 97.73 ± 0.84%
621-103 (TSC2-rescued); 0.1 µM
  relative viability: 97.82 ± 0.96%
621-103 (TSC2-rescued); 1 µM
  relative viability: 97.97 ± 0.66%
621-103 (TSC2-rescued); 10 µM
  relative viability: 73.4 ± 6.5%

## CC(=O)Nc1nc(C)c(-c2ccc(Cl)c(S(=O)(=O)NCCO)c2)s1 [PIK-93]
621-102 (TSC2-deficient); 0.0001 µM
  relative viability: 94.69 ± 0.6%
621-102 (TSC2-deficient); 0.001 µM
  relative viability: 106 ± 2.8%
621-102 (TSC2-deficient); 0.01 µM
  relative viability: 115 ± 0.89%
621-102 (TSC2-deficient); 0.1 µM
  relative viability: 112 ± 3.2%
621-102 (TSC2-deficient); 1 µM
  relative viability: 113.97 ± 0.11%
621-102 (TSC2-deficient); 10 µM
  relative viability: 82.8 ± 0.53%
621-103 (TSC2-rescued); 0.0001 µM
  relative viability: 102.7 ± 0.19%
621-103 (TSC2-rescued); 0.001 µM
  relative viability: 102 ± 1.3%
621-103 (TSC2-rescued); 0.01 µM
  relative viability: 98.7 ± 1.2%
621-103 (TSC2-rescued); 0.1 µM
  relative viability: 100.8 ± 1%
621-103 (TSC2-rescued); 1 µM
  relative viability: 102 ± 1.7%
621-103 (TSC2-rescued); 10 µM
  relative viability: 74.3 ± 1.8%

## Cc1ccccc1-n1c(Cn2ncc3c(N)ncnc32)nc2cccc(C)c2c1=O [PIK-293]
621-102 (TSC2-deficient); 0.0001 µM
  relative viability: 75.5 ± 1.2%
621-102 (TSC2-deficient); 0.001 µM
  relative viability: 114 ± 4.8%
621-102 (TSC2-deficient); 0.01 µM
  relative viability: 108 ± 1.3%
621-102 (TSC2-deficient); 0.1 µM
  relative viability: 118.8 ± 0.73%
621-102 (TSC2-deficient); 1 µM
  relative viability: 111.4 ± 0.27%
621-102 (TSC2-deficient); 10 µM
  relative viability: 108 ± 5.3%
621-103 (TSC2-rescued); 0.0001 µM
  relative viability: 99.57 ± 0.92%
621-103 (TSC2-rescued); 0.001 µM
  relative viability: 99.6 ± 1.1%
621-103 (TSC2-rescued); 0.01 µM
  relative viability: 98.74 ± 0.94%
621-103 (TSC2-rescued); 0.1 µM
  relative viability: 98.35 ± 0.28%
621-103 (TSC2-rescued); 1 µM
  relative viability: 98.9 ± 1.9%
621-103 (TSC2-rescued); 10 µM
  relative viability: 94.1 ± 1.5%

## CN(C)C1CCN(C(=O)c2ccc(NC(=O)Nc3ccc(-c4nc(N5CCOCC5)nc(N5CCOCC5)n4)cc3)cc2)CC1 [PKI-587]
621-102 (TSC2-deficient); 0.0001 µM
  relative viability: 52.3 ± 1.3%
621-102 (TSC2-deficient); 0.001 µM
  relative viability: 38.71 ± 0.29%
621-102 (TSC2-deficient); 0.01 µM
  relative viability: 29.8 ± 0.13%
621-102 (TSC2-deficient); 0.1 µM
  relative viability: 22.16 ± 0.12%
621-102 (TSC2-deficient); 1 µM
  relative viability: 17.8 ± 0.79%
621-102 (TSC2-deficient); 10 µM
  relative viability: 13.3 ± 0.47%
621-103 (TSC2-rescued); 0.0001 µM
  relative viability: 72.6 ± 3.4%
621-103 (TSC2-rescued); 0.001 µM
  relative viability: 49.4 ± 3%
621-103 (TSC2-rescued); 0.01 µM
  relative viability: 44.8 ± 2.2%
621-103 (TSC2-rescued); 0.1 µM
  relative viability: 33.8 ± 1.2%
621-103 (TSC2-rescued); 1 µM
  relative viability: 26.61 ± 0.072%
621-103 (TSC2-rescued); 10 µM
  relative viability: 19.91 ± 0.074%

## CCCS(=O)(=O)Nc1ccc(F)c(C(=O)c2c[nH]c3ncc(Cl)cc23)c1F [PLX-4720]
621-102 (TSC2-deficient); 0.0001 µM
  relative viability: 108 ± 2.7%
621-102 (TSC2-deficient); 0.001 µM
  relative viability: 111 ± 4.3%
621-102 (TSC2-deficient); 0.01 µM
  relative viability: 107 ± 4.4%
621-102 (TSC2-deficient); 0.1 µM
  relative viability: 99.7 ± 4.8%
621-102 (TSC2-deficient); 1 µM
  relative viability: 101 ± 3.2%
621-102 (TSC2-deficient); 10 µM
  relative viability: 101 ± 1.9%
621-103 (TSC2-rescued); 0.0001 µM
  relative viability: 102 ± 2.3%
621-103 (TSC2-rescued); 0.001 µM
  relative viability: 100.7 ± 0.75%
621-103 (TSC2-rescued); 0.01 µM
  relative viability: 99.2 ± 1.6%
621-103 (TSC2-rescued); 0.1 µM
  relative viability: 99.5 ± 1.8%
621-103 (TSC2-rescued); 1 µM
  relative viability: 99.18 ± 0.44%
621-103 (TSC2-rescued); 10 µM
  relative viability: 103.4 ± 0.45%

## CC(C)n1nc(-c2cc3cc(O)ccc3[nH]2)c2c(N)ncnc21 [PP242]
621-102 (TSC2-deficient); 0.0001 µM
  relative viability: 93.3 ± 6.1%
621-102 (TSC2-deficient); 0.001 µM
  relative viability: 95.7 ± 2.2%
621-102 (TSC2-deficient); 0.01 µM
  relative viability: 103 ± 2%
621-102 (TSC2-deficient); 0.1 µM
  relative viability: 101.44 ± 0.046%
621-102 (TSC2-deficient); 1 µM
  relative viability: 46 ± 1.6%
621-102 (TSC2-deficient); 10 µM
  relative viability: 16.86 ± 0.071%
621-103 (TSC2-rescued); 0.0001 µM
  relative viability: 107 ± 6.5%
621-103 (TSC2-rescued); 0.001 µM
  relative viability: 107.2 ± 0.94%
621-103 (TSC2-rescued); 0.01 µM
  relative viability: 103 ± 2.7%
621-103 (TSC2-rescued); 0.1 µM
  relative viability: 80.1 ± 1.7%
621-103 (TSC2-rescued); 1 µM
  relative viability: 38 ± 0.41%
621-103 (TSC2-rescued); 10 µM
  relative viability: 23.13 ± 0.076%

## Nc1ncnc2c1c(-c1cnc3[nH]ccc3c1)nn2C1CCCC1 [PP-121]
621-102 (TSC2-deficient); 0.0001 µM
  relative viability: 102 ± 4.8%
621-102 (TSC2-deficient); 0.001 µM
  relative viability: 97.7 ± 2.4%
621-102 (TSC2-deficient); 0.01 µM
  relative viability: 89.2 ± 0.2%
621-102 (TSC2-deficient); 0.1 µM
  relative viability: 85 ± 1.9%
621-102 (TSC2-deficient); 1 µM
  relative viability: 56.4 ± 0.66%
621-102 (TSC2-deficient); 10 µM
  relative viability: 5.4 ± 0.81%
621-103 (TSC2-rescued); 0.0001 µM
  relative viability: 104.1 ± 0.76%
621-103 (TSC2-rescued); 0.001 µM
  relative viability: 103 ± 2.2%
621-103 (TSC2-rescued); 0.01 µM
  relative viability: 99.74 ± 0.75%
621-103 (TSC2-rescued); 0.1 µM
  relative viability: 86.8 ± 3.6%
621-103 (TSC2-rescued); 1 µM
  relative viability: 41.5 ± 1.9%
621-103 (TSC2-rescued); 10 µM
  relative viability: 10.2 ± 0.22%

## CC(=O)O[C@H]1C(=O)[C@@]2(C)[C@H]([C@H](OC(=O)c3ccccc3)[C@]3(O)C[C@H](OC(=O)[C@H](O)[C@@H](NC(=O)c4ccccc4)c4ccccc4)C(C)=C1C3(C)C)[C@]1(OC(C)=O)CO[C@@H]1C[C@@H]2O [Paclitaxel]
621-102 (TSC2-deficient); 0.0001 µM
  relative viability: 54.2 ± 1.8%
621-102 (TSC2-deficient); 0.001 µM
  relative viability: 46.8 ± 2.3%
621-102 (TSC2-deficient); 0.01 µM
  relative viability: 33.66 ± 0.22%
621-102 (TSC2-deficient); 0.1 µM
  relative viability: 33.1 ± 0.46%
621-102 (TSC2-deficient); 1 µM
  relative viability: 29.6 ± 1.3%
621-102 (TSC2-deficient); 10 µM
  relative viability: 31.1 ± 2.3%
621-103 (TSC2-rescued); 0.0001 µM
  relative viability: 69 ± 1.5%
621-103 (TSC2-rescued); 0.001 µM
  relative viability: 59.3 ± 0.96%
621-103 (TSC2-rescued); 0.01 µM
  relative viability: 40.8 ± 0.42%
621-103 (TSC2-rescued); 0.1 µM
  relative viability: 34.5 ± 0.39%
621-103 (TSC2-rescued); 1 µM
  relative viability: 28.7 ± 0.81%
621-103 (TSC2-rescued); 10 µM
  relative viability: 42.3 ± 0.75%
